From patent publication US20220348595A1, “COMPOUNDS AND METHODS FOR THE TARGETED DEGRADATION OF ESTROGEN RECEPTORS” (Endotarget Inc., priority 2021, published 2022)
Read-outs that look alike come from different tables or passages of the source.

Key:
Format in all cases: cell-based
[1] = test system: MCF-7 breast cancer cells; test: MCF-7 proliferation / cell viability assay; conditions: MCF-7 proliferation with 0.1 nM 17-beta estradiol, read-out: IC50 (anti-proliferation)
In short: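 MCF-7 cells in 5% FBS DMEM were exposed for 5 days to compound at 6 doses from 10^−10 M to 10^−5 M, with DMSO as vehicle. Viable cells were counted by Coulter counter. Survival ratio = treated/vehicle viable cell number, vehicle set to 100%.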

ERα = biological target: T1, ERα (Homo sapiens, UniProt P03372); test: ER degradation in MCF-7 cells (Western blot); conditions: for DC50: ER degradation, 24 hours
T1 construct: endogenous in cells; host or cells: MCF-7
T1 sequence (P03372 1-595): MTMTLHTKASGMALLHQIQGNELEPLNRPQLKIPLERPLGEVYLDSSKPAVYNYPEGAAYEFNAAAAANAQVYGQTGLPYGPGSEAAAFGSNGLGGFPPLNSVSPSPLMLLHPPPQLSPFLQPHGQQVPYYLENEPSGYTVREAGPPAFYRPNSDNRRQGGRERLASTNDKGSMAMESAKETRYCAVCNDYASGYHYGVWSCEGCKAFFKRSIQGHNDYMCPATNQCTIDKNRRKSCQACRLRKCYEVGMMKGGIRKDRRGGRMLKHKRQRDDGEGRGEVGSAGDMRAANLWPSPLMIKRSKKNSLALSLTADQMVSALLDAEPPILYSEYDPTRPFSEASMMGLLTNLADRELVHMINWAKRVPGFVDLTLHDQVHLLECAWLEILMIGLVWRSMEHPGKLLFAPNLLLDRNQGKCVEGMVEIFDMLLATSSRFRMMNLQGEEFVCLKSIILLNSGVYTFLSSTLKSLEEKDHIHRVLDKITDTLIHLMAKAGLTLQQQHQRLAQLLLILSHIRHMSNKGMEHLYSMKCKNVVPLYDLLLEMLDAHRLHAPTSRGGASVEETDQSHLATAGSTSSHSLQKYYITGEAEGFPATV
In short: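 MCF-7 cells treated with a range of compound concentrations for 24 hours, then lysed; 50 μg protein probed for ERα by Western blot with infrared imaging. DC50 is concentration giving 50% ER reduction; Dmax is the highest percentage reduction over the range tested.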

ER = biological target: T2, ER (Homo sapiens, UniProt P03372); test: ER antagonism (T47D ERE luciferase), T47d-kb-Luc cells; conditions: read-out: IC50 (ER antagonistm)
T2 construct: endogenous in cells; host or cells: T47d-kb-Luc (T47D stably transfected with a luciferase reporter gene only)
T2 sequence (P03372 1-595): T1 sequence (P03372 1-595)
In short: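 Stably transfected T47d-kb-Luc human breast cancer cells were used, and antagonism was measured as inhibition of estradiol-driven activity. Data were normalised to the estradiol control. Five concentrations were tested in quadruplicate across at least three experiments.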

[2] = MCF7, Maximal ER degradation, read-out: Dmax

Row | SMILES | IC50 ([1]; Homo sapiens, MCF7) | DC50 (ERα) | Dmax (ERα; [2]) | IC50 (ER) | IC50 [1] | Dmax (ERα; Maximal ER degradation)
1 | CC/C(=C(\c1ccc(O)cc1)c1ccc(OCCN2CCN(C(=O)N3CCN(c4ccc5c(c4)CN([C@H]4CCC(=O)NC4=O)C5=O)CC3)CC2)cc1)c1ccccc1 [Compound 78, (S,Z)-3-(5-(4-(4-(2-(4-(1-(4-hydroxyphenyl)-2-phenylbut-1-en-1-yl)phenoxy)ethyl)piperazine-1-carbonyl)piperazin-1-yl)-1-oxoisoindolin-2-yl)piperidine-2,6-dione] | < 10 nM | < 10 nM | > 90% | < 10 nM |  | 
2 | CC/C(=C(\c1ccc(O)cc1)c1ccc(OCCN2CCN(C(=O)N3CCN(c4ccc5c(c4)CN([C@@H]4CCC(=O)NC4=O)C5=O)CC3)CC2)cc1)c1ccccc1 [Compound 79, (R,Z)-3-(5-(4-(4-(2-(4-(1-(4-hydroxyphenyl)-2-phenylbut-1-en-1-yl)phenoxy)ethyl)piperazine-1-carbonyl)piperazin-1-yl)-1-oxoisoindolin-2-yl)piperidine-2,6-dione] | < 10 nM | < 10 nM | > 90% | < 10 nM |  | 
3 | CC/C(=C(/c1ccc(O)cc1)c1ccc(OCCN2CCN(C(=O)N3CCN(c4ccc5c(c4)CN(C4CCC(=O)NC4=O)C5=O)CC3)CC2)cc1)c1ccccc1 (centres unmarked) [Compound 80, (E)-3-(5-(4-(4-(2-(4-(1-(4-hydroxyphenyl)-2-phenylbut-1-en-1-yl)phenoxy)ethyl)piperazine-1-carbonyl)piperazin-1-yl)-1-oxoisoindolin-2-yl)piperidine-2,6-dione] | < 10 nM | < 10 nM | > 90% | < 10 nM |  | 
4 | CC/C(=C(/c1ccc(O)cc1)c1ccc(OCCN2CCN(C(=O)N3CCN(c4ccc5c(c4)CN([C@H]4CCC(=O)NC4=O)C5=O)CC3)CC2)cc1)c1ccccc1 [Compound 81, (S,E)-3-(5-(4-(4-(2-(4-(1-(4-hydroxyphenyl)-2-phenylbut-1-en-1-yl)phenoxy)ethyl)piperazine-1-carbonyl)piperazin-1-yl)-1-oxoisoindolin-2-yl)piperidine-2,6-dione] | < 10 nM | < 10 nM | > 90% | < 10 nM |  | 
5 | CC/C(=C(/c1ccc(O)cc1)c1ccc(OCCN2CCN(C(=O)N3CCN(c4ccc5c(c4)CN([C@@H]4CCC(=O)NC4=O)C5=O)CC3)CC2)cc1)c1ccccc1 [Compound 82] | < 10 nM | < 10 nM | > 90% | < 10 nM |  | 
6 | CC/C(=C(/c1ccc(OCCN2CCN(C(=O)N3CCN(c4ccc5c(c4)CN(C4CCC(=O)NC4=O)C5=O)CC3)CC2)cc1)c1ccc(B(O)O)cc1)c1ccccc1 (centres unmarked) [Compound 83, (Z)-(4-(1-(4-(2-(4-(4-(2-(2,6-dioxopiperidin-3-yl)-1-oxoisoindolin-5-yl)piperazine-1-carbonyl)piperazin-1-yl)ethoxy)phenyl)-2-phenylbut-1-en-1-yl)phenyl)boronic acid] | < 10 nM | < 10 nM | > 90% | < 10 nM |  | 
7 | CC/C(=C(/c1ccc(OCCN2CCN(C(=O)N3CCN(c4ccc5c(c4)CN([C@H]4CCC(=O)NC4=O)C5=O)CC3)CC2)cc1)c1ccc(B(O)O)cc1)c1ccccc1 [Compound 84] | < 10 nM | < 10 nM | > 90% | < 10 nM |  | 
8 | CC/C(=C(/c1ccc(OCCN2CCN(C(=O)N3CCN(c4ccc5c(c4)CN([C@@H]4CCC(=O)NC4=O)C5=O)CC3)CC2)cc1)c1ccc(B(O)O)cc1)c1ccccc1 [Compound 85, (R,Z)-(4-(1-(4-(2-(4-(4-(2-(2,6-dioxopiperidin-3-yl)-1-oxoisoindolin-5-yl)piperazine-1-carbonyl)piperazin-1-yl)ethoxy)phenyl)-2-phenylbut-1-en-1-yl)phenyl)boronic acid] | < 10 nM | < 10 nM | > 90% | < 10 nM |  | 
9 | CC/C(=C(\c1ccc(OCCN2CCN(C(=O)N3CCN(c4ccc5c(c4)CN(C4CCC(=O)NC4=O)C5=O)CC3)CC2)cc1)c1ccc(B(O)O)cc1)c1ccccc1 (centres unmarked) [Compound 86, (E)-(4-(1-(4-(2-(4-(4-(2-(2,6-dioxopiperidin-3-yl)-1-oxoisoindolin-5-yl)piperazine-1-carbonyl)piperazin-1-yl)ethoxy)phenyl)-2-phenylbut-1-en-1-yl)phenyl)boronic acid] | < 10 nM | < 10 nM | > 90% | < 10 nM |  | 
10 | CC/C(=C(\c1ccc(OCCN2CCN(C(=O)N3CCN(c4ccc5c(c4)CN([C@H]4CCC(=O)NC4=O)C5=O)CC3)CC2)cc1)c1ccc(B(O)O)cc1)c1ccccc1 [Compound 87, (S,E)-(4-(1-(4-(2-(4-(4-(2-(2,6-dioxopiperidin-3-yl)-1-oxoisoindolin-5-yl)piperazine-1-carbonyl)piperazin-1-yl)ethoxy)phenyl)-2-phenylbut-1-en-1-yl)phenyl)boronic acid] | < 10 nM | < 10 nM | > 90% | < 10 nM |  | 
11 | CC/C(=C(\c1ccc(OCCN2CCN(C(=O)N3CCN(c4ccc5c(c4)CN([C@@H]4CCC(=O)NC4=O)C5=O)CC3)CC2)cc1)c1ccc(B(O)O)cc1)c1ccccc1 [Compound 88] | < 10 nM | < 10 nM | > 90% | < 10 nM |  | 
12 | CC/C(=C(\c1ccc(O)cc1)c1ccc(OCCN2CCN(C(=O)N3CCC(CN4CCN(c5ccc6c(c5)CN(C5CCC(=O)NC5=O)C6=O)CC4)CC3)CC2)cc1)c1ccccc1 (centres unmarked) [Compound 89] |  | < 10 nM |  | < 10 nM | < 10 nM | A (A -> 90%)
13 | CC/C(=C(/c1ccc(O)cc1)c1ccc(OCCN2CCN(C(=O)N3CCC(CN4CCN(c5ccc6c(c5)CN(C5CCC(=O)NC5=O)C6=O)CC4)CC3)CC2)cc1)c1ccccc1 (centres unmarked) [Compound 90, (E)-3-(5-(4-((1-(4-(2-(4-(1-(4-hydroxyphenyl)-2-phenylbut-1-en-1-yl)phenoxy)ethyl)piperazine-1-carbonyl)piperidin-4-yl)methyl)piperazin-1-yl)-1-oxoisoindolin-2-yl)piperidine-2,6-dione] | < 10 nM | < 10 nM | > 90% | < 10 nM |  | 
14 | CC/C(=C(/c1ccc(OCCN2CCN(C(=O)N3CCC(CN4CCN(c5ccc6c(c5)CN(C5CCC(=O)NC5=O)C6=O)CC4)CC3)CC2)cc1)c1ccc(B(O)O)cc1)c1ccccc1 (centres unmarked) [Compound 91, (Z)-(4-(1-(4-(2-(4-(4-((4-(2-(2,6-dioxopiperidin-3-yl)-1-oxoisoindolin-5-yl)piperazin-1-yl)methyl)piperidine-1-carbonyl)piperazin-1-yl)ethoxy)phenyl)-2-phenylbut-1-en-1-yl)phenyl)boronic acid] | < 10 nM | < 10 nM | > 90% | < 10 nM |  | 
15 | CC/C(=C(\c1ccc(OCCN2CCN(C(=O)N3CCC(CN4CCN(c5ccc6c(c5)CN(C5CCC(=O)NC5=O)C6=O)CC4)CC3)CC2)cc1)c1ccc(B(O)O)cc1)c1ccccc1 (centres unmarked) [Compound 92, (E)-(4-(1-(4-(2-(4-(4-((4-(2-(2,6-dioxopiperidin-3-yl)-1-oxoisoindolin-5-yl)piperazin-1-yl)methyl)piperidine-1-carbonyl)piperazin-1-yl)ethoxy)phenyl)-2-phenylbut-1-en-1-yl)phenyl)boronic acid] | < 10 nM | < 10 nM | > 90% | < 10 nM |  | 
16 | CC/C(=C(\c1ccc(O)cc1)c1ccc(OCCN2CCN(C(=O)N3CCC(N4CCN(c5ccc6c(c5)CN(C5CCC(=O)NC5=O)C6=O)CC4)CC3)CC2)cc1)c1ccccc1 (centres unmarked) [Compound 93, (Z)-3-(5-(4-(1-(4-(2-(4-(1-(4-hydroxyphenyl)-2-phenylbut-1-en-1-yl)phenoxy)ethyl)piperazine-1-carbonyl)piperidin-4-yl)piperazin-1-yl)-1-oxoisoindolin-2-yl)piperidine-2,6-dione] | < 10 nM | 10 to 50 nM | > 90% | < 10 nM |  | 
17 | CC/C(=C(/c1ccc(O)cc1)c1ccc(OCCN2CCN(C(=O)N3CCC(N4CCN(c5ccc6c(c5)CN(C5CCC(=O)NC5=O)C6=O)CC4)CC3)CC2)cc1)c1ccccc1 (centres unmarked) [Compound 94, (E)-3-(5-(4-(1-(4-(2-(4-(1-(4-hydroxyphenyl)-2-phenylbut-1-en-1-yl)phenoxy)ethyl)piperazine-1-carbonyl)piperidin-4-yl)piperazin-1-yl)-1-oxoisoindolin-2-yl)piperidine-2,6-dione] | < 10 nM | 10 to 50 nM | > 90% | < 10 nM |  | 
